{"source": "patent US20240374545A1", "about": "“DIAGNOSIS OF IMMUNITY REDUCTION THROUGH INTESTINAL MICROFLORA ANALYSIS OF STOMACH CANCER PATIENTS, AND THERAGNOSTIC COMPOSITION USING INTESTINAL MICROFLORA” (THE CATHOLIC UNIVERSITY OF KOREA INDUSTRY-ACADEMIC …, priority 2022, published 2024)", "key": {"[1]": {"tested_on": "AGS cell line, a stomach cancer cell line", "assay": "Stomach cancer transplant animal model (AGS subcutaneous in NSG mice), tumor growth", "format": "in vivo", "settings": "NSG mice with AGS tumor, 50 mg/kg orally daily, compared to the Vehicle group (FIG. 3)", "procedure": "It was confirmed whether SD217, the novel compound of the present invention, inhibited tumor growth. Specifically, a stomach cancer transplant animal model was fabricated by subcutaneously injecting 5×10^6 of the AGS cell line, a stomach cancer cell line, into 6-8-week-old immunodeficient mice (NSG). Thereafter, SD217 was orally administered daily at a concentration of 50 mg/kg. After AGS cell injection and SD217 administration, tumor size was measured three times weekly using calipers, and tumor volume was calculated by substituting the lengths in long axis and short axis of the tumor into Equation 1 below. As a control group, a Vehicle group injected with the same amount of PBS was used."}, "[2]": {"tested_on": "AGS cell line, a stomach cancer cell line", "assay": "Apoptosis of AGS stomach cancer cell line by Annexin/PI flow cytometry (SD217)", "format": "cell-based", "settings": "48 hours", "procedure": "It was determined whether SD217, a novel compound of the present invention, may specifically kill stomach cancer cells. Specifically, 2×10^5 of a AGS cell line, a stomach cancer cell line, was inoculated into a 6-well plate and then treated with SD217, the novel compound of the present invention, at a concentration of 0.2 mM after overnight, and after 48 hours, stained with Annexin/PI, and then apoptotic cells were analyzed by flow cytometry. As a control group, a Vehicle group treated with the same amount of PBS was used. Thereafter, early apoptotic cells were confirmed, a ratio of late apoptotic/necrotic cells was confirmed, and thus death of the stomach cancer cell line was confirmed.\nIt was confirmed whether SD217, the novel compound of the present invention, induced early and late apoptosis in stomach cancer cell line. Specifically, 2×10^5 of a AGS cell line, a stomach cancer cell line, was inoculated into a 6-well plate and then treated with SD217, the novel compound of the present invention, at concentrations of 1, 5, 10, 20, and 50 mM after overnight, and after 48 hours, stained with Annexin/PI, and then apoptotic cells were analyzed by flow cytometry."}, "[3]": {"tested_on": "Programmed Death-Ligand 1 (PD-L1)", "assay": "PD-L1 positive cells in AGS stomach cancer cell line by flow cytometry", "format": "cell-based", "settings": "AGS cells, 0.2, 0.5, and 1 mM, compared to the Vehicle group (FIG. 2)", "from_the_text": "It was intended to confirm the expression of a Programmed Death-Ligand 1 (PD-L1) protein, an immunity reduction marker of stomach cancer cells, by SD217, a novel compound of the present invention. The PD-L1 protein was a surface protein of stomach cancer cells, and the PD-L1 is a protein that evaded the immune responses of T cells by binding to programmed cell death-1 (PD-1), a surface protein of activated T cells. […] Specifically, in the same manner as in Example 1, AGS cells, a stomach cancer cell line, were treated with 0.2, 0.5, and 1 mM of SD217 and reacted. Thereafter, PD-L1 positive cells were analyzed by flow cytometry. As a control group, a Vehicle group treated with PBS was used, and as a positive control group, 1 mM Metformin was used."}, "[4]": {"settings": "AGS cells, 1, 5, 10, 20, and 50 mM, compared to the Vehicle group (FIG. 4)"}}}
{"compound": "N=C(N)NC(=N)Nc1ccc(F)cc1F", "note": "[SD217, 1-(2,4-difluorophenyl) biguanide]", "values": [{"measurement": "tumor growth", "setting": "[1]", "value": "significantly inhibited"}, {"measurement": "tumor volume", "setting": "[1]", "value": "significantly reduced"}, {"measurement": "apoptosis", "setting": "[2]; AGS cells, 0.2 mM, Annexin/PI, compared to the Vehicle group (FIG. 1)", "value": "significantly increased"}, {"measurement": "early apoptosis", "setting": "[2]; [4]", "value": "induced in a concentration-dependent manner"}, {"measurement": "late apoptosis", "setting": "[2]; [4]", "value": "induced in a concentration-dependent manner"}, {"measurement": "number of PD-L1 positive cells", "setting": "[3]", "value": "significantly reduced"}]}
